Test results published in US6608086B2, “Dihydropyridines and new uses thereof” (Synaptic Pharmaceutical Corporation, priority 1993, dated 2003).
Counter-ions that a name gives are not always drawn. Like-named read-outs stand apart in the source and are kept apart here.

Experiments:
α2C receptor = target: T1, α2C receptor (Homo sapiens, UniProt P18825); test: Competition binding, [3H]rauwolscine, human α2C receptor
T1 construct: host or cells: LM(tk-) cells, line L-α2C
T1 sequence (P18825 1-462): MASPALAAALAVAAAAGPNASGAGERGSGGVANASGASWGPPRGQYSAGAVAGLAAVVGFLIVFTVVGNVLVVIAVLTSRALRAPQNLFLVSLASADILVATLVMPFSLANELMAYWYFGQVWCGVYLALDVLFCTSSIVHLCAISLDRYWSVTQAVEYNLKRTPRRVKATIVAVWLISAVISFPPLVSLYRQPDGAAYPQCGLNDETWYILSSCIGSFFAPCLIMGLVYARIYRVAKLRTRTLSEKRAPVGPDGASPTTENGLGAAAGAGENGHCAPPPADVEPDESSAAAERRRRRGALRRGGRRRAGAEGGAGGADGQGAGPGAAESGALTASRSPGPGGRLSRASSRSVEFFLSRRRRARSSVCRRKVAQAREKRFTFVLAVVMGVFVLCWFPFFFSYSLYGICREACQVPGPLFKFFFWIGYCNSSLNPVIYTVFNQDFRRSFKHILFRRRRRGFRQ
How it was run: (§1)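 Equilibrium displacement of [3H]rauwolscine (0.5 nM) measured on membranes from stably transfected LM(tk−) lines, one per α2 subtype, in glycylglycine buffer at pH 7.6. Nonspecific binding set by 10 μM phentolamine; separation by filtration.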

L-type calcium channel = target: T2, L-type calcium channel (Rattus norvegicus, UniProt P22002); test: Competition binding of [3H]nitrendipine to membrane fragments of rat cardiac muscle
T2 construct: membrane fragments of rat cardiac muscle; from tissue; host or cells: rat cardiac muscle membranes
T2 sequence (P22002 whole entry, other chains not shown, the tested form may be a part): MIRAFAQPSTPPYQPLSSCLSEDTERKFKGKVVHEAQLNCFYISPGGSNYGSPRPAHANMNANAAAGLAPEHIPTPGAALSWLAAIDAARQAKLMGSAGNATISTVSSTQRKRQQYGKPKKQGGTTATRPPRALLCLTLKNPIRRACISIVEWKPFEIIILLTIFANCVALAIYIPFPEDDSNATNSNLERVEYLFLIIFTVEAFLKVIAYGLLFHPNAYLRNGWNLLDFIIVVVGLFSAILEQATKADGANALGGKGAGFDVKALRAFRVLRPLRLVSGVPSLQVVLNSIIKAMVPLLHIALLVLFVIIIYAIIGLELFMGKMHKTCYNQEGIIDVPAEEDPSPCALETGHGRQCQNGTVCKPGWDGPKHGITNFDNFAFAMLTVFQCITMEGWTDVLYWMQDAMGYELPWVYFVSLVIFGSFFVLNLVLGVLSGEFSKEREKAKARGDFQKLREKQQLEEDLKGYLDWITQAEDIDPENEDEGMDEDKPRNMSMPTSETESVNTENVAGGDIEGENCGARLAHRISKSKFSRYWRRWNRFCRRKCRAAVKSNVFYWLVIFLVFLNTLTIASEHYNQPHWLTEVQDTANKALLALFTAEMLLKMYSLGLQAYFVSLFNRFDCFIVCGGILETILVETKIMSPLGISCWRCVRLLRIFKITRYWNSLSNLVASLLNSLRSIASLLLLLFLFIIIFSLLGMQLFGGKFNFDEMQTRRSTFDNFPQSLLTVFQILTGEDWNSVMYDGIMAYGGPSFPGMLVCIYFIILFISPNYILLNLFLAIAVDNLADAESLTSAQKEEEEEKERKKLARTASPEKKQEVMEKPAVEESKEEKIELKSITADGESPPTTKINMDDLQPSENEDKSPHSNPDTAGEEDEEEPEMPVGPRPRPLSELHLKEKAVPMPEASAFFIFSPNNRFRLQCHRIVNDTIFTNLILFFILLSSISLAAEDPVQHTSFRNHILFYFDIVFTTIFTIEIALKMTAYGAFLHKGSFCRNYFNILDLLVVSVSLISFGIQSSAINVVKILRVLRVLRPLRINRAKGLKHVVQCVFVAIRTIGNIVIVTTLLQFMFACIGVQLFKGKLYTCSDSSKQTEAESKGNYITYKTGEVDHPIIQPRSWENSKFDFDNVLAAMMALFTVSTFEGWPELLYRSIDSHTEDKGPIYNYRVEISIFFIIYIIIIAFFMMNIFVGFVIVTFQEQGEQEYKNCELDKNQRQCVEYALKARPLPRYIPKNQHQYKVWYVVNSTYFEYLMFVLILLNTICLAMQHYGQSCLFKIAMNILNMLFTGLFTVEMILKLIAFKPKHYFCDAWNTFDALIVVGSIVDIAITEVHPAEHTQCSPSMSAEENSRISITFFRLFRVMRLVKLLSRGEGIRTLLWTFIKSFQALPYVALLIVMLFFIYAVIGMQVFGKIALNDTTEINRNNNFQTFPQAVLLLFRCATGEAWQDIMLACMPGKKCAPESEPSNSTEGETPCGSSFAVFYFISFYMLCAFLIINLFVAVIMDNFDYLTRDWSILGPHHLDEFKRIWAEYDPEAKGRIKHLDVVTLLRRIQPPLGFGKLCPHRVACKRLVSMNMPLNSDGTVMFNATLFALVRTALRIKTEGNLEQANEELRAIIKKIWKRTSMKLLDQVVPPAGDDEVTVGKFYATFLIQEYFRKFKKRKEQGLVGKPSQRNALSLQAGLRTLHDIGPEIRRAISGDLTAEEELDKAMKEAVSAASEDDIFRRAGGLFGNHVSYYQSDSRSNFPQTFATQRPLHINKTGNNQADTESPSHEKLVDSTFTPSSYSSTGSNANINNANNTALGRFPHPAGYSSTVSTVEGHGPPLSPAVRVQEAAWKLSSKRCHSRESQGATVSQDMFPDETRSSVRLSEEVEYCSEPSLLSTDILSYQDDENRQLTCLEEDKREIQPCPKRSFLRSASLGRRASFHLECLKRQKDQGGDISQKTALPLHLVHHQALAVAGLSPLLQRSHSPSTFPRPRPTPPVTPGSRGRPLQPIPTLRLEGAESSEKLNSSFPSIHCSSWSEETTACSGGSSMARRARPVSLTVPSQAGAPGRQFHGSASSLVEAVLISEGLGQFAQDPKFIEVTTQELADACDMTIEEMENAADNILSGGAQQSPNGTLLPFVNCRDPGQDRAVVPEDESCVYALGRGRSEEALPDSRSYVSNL
T2 sequence (P54290 25-944 partner limits assumed, other chains not shown): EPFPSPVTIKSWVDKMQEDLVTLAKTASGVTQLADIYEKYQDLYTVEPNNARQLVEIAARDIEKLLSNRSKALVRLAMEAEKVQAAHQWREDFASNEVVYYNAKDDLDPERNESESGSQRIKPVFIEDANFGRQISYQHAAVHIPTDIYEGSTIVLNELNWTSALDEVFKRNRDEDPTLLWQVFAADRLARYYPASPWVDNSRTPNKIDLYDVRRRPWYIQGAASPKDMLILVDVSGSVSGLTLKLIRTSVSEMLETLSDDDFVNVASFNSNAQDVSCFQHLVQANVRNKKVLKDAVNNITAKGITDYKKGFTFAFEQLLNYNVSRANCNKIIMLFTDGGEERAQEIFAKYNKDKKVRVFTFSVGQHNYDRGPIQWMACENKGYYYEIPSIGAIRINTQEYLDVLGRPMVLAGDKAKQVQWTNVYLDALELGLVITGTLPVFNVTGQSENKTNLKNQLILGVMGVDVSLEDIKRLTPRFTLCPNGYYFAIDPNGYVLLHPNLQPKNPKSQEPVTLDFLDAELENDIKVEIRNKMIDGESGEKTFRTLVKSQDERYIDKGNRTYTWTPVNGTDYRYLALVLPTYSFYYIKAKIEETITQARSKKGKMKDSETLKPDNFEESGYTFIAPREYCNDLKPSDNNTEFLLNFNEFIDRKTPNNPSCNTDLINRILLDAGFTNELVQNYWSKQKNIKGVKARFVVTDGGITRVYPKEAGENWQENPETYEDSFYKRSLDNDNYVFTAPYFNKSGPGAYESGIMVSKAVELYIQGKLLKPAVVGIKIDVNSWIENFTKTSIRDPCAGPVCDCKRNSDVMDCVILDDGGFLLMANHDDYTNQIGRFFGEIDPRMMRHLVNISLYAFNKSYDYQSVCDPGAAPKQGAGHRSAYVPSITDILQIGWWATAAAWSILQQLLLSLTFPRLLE
T2 sequence (P54290 945-1091 partner limits assumed, other chains not shown): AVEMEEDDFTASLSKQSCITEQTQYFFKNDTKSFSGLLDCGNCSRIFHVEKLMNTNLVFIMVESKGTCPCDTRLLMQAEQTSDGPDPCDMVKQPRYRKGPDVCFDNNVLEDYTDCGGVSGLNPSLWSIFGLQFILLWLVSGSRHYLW

α2B receptor = target: T3, α2B receptor (Homo sapiens, UniProt P18089); test: Competition binding, [3H]rauwolscine, human α2B receptor
T3 construct: host or cells: LM(tk-) cells, line L-NGC-α2B
T3 sequence (P18089 1-450): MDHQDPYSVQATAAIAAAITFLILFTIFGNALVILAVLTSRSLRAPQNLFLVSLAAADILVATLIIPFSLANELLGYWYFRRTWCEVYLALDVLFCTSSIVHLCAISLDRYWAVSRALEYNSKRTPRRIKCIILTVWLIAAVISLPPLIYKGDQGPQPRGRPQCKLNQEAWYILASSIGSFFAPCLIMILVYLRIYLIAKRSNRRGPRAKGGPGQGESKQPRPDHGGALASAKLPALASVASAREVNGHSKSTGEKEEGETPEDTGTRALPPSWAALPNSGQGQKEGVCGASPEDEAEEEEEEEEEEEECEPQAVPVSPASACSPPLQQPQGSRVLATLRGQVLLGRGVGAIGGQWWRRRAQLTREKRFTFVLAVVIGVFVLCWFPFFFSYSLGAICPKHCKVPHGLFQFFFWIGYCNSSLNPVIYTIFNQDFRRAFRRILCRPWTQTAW
How it was run: as §1

[1] = [3H]rauwolscine, human α2C receptor, LM(tk−) cells, read-out: pKi alpha-2 2c (converted)
[2] = [3H]nitrendipine, rat cardiac muscle membrane fragments, L-type calcium channel, read-out: pKi Ca (converted)
[3] = pKi alpha-2 2b, [3H]rauwolscine, human α2B receptor, LM(tk−) cells
[4] = pKi alpha-2 2c, [3H]rauwolscine, human α2C receptor, LM(tk−) cells
[5] = [3H]rauwolscine, human α2B receptor, LM(tk−) cells, read-out: pKi alpha-2 2b (converted)

| SMILES | Ki (α2C receptor; [1]) [µM] | Ki (L-type calcium channel; [2]) [µM] | Ki (α2B receptor; [3]) [µM] | further results |
| --- | --- | --- | --- | --- |
| CCC1=C(C(N)=O)C(c2ccc([N+](=O)[O-])cc2)C(C(=O)NCCCN2CCC(c3ccc(OC)cc3)(c3ccc(OC)cc3)CC2)=C(CC)N1 (stereo not drawn) [Example 103, 5-Carboxamido-2,6-diethyl-1,4-dihydro-3-{N-[3-(4,4-bis-(4-methoxyphenyl)piperidin-1-yl)propyl]}carboxamido}-4-(4-nitrophenyl)pyridine hydrochloride] | – | – | – | Ki (α2C receptor; pKi alpha-2 2c): 0.269 µM; Ki (L-type calcium channel; pKi Ca): 0.178 µM; Ki (α2B receptor; pKi alpha-2 2b): 0.741 µM |
| CCC1=C(C(N)=O)C(c2ccc([N+](=O)[O-])cc2)C(C(=O)NCCCN2CCC3(CC2)C(=O)NCN3c2ccccc2)=C(CC)N1 (stereo not drawn) [Example 105, 5-Carboxamido-2,6-diethyl-1,4-dihydro-4-(4-nitrophenyl)-3-{N-[3-(1-phenyl-4-oxo-1,3,8-triazaspiro[4.3]decan-8-yl)propyl]}carboxamidopyridine hydrochloride hydrate] | – | – | – | Ki (α2C receptor; pKi alpha-2 2c): 1.38 µM; Ki (L-type calcium channel; pKi Ca): 6.61 µM; Ki (α2B receptor; pKi alpha-2 2b): 2.19 µM |
| CCC1=C(C(N)=O)C(c2ccc([N+](=O)[O-])cc2)C(C(=O)NCCCN2CCC(C)(c3ccccc3)CC2)=C(CC)N1 (stereo not drawn) [Example 106, 5-Carboxamido-2,6-diethyl-1,4-dihydro-3-{N-[3-(4-Methyl-4-phenylpiperidin-1-yl)propyl]}carboxamido-4-(4-nitrophenyl)pyridine hydrochloride hydrate] | 0.295 | 1000 | 0.372 | – |
| CCC1=C(C(=O)NCCCN2CCC(c3ccccc3)(c3ccccc3)CC2)C(c2cccc(OC)c2)C(C(=O)NCCCN2CCC(c3ccccc3)(c3ccccc3)CC2)=C(CC)N1 [Example 112, 2,6-Diethyl-1,4-dihydro-4-(3-methoxyphenyl)-3,5-bis(N-(3-(4,4-diphenylpiperidin-1-yl)propyl)carboxamido)-pyridine] | – | 0.0575 | 0.447 | Ki (α2C receptor; [4]): 0.269 µM |
| CCC1=C(C(=O)NCCCN2CCC(c3ccccc3)(c3ccccc3)CC2)C(c2cccc(OC)c2)C(C(N)=O)=C(C)N1 (stereo not drawn) [Example 113, 5-Carboxamide-2-ethyl-1,4-dihydro-4-(3-methoxyphenyl)-6-methyl-3-(N-(3-(4,4-diphenylpiperidin-1-yl)propyl)carboxamido)-pyridine] | – | 1000 | 0.166 | Ki (α2C receptor; [4]): 0.316 µM |
| CCC1=C(C(=O)NCCCN2CCC(c3ccccc3)(c3ccccc3)CC2)C(c2ccc(N)cc2)C(C(=O)OC)=C(C)N1 (stereo not drawn) [Example 114, 4-(4-Aminophenyl)-2-ethyl-1,4-dihydro-5-methoxycarbonyl-6-methyl-3-(N-(3-(4,4-diphenylpiperidin-1-yl)propyl)carboxamido)-pyridine] | – | – | – | Ki (α2C receptor; pKi alpha-2 2c): 0.724 µM; Ki (L-type calcium channel; pKi Ca): 2.88 µM; Ki (α2B receptor; pKi alpha-2 2b): 0.468 µM |
| CC1=C(C(N)=O)C(c2ccc(S(C)(=O)=O)cc2)C(C(=O)NCCCN2CCC(c3ccccc3)(c3ccccc3)CC2)=C(C)N1 (stereo not drawn) [Example 115, 5-Carboxamido-1,4-4-dihydro-4-(4-methanesufonylphenyl)-2,6-dimethyl-3-(N-(3-(4,4-diphenylpiperidin-1-yl)propyl)carboxamido)-pyridine] | 2.29 | 1000 | 0.776 | – |
| COc1cccc(C2C(C(N)=O)=C(C)NC(C)=C2C(=O)NCCCN2CCC(c3ccccc3)(c3ccccc3)CC2)c1 (stereo not drawn) [Example 117, 5-Carboxamido-1,4-dihydro-4-(3-Methoxyphenyl)-2,6-dimethyl-3-(N-(3-(4,4-diphenylpiperidin-1-yl)propyl)carboxamido)-pyridine] | 0.759 | 1000 | 0.437 | – |
| CCC1=C(C(N)=O)C(c2ccc(S(C)(=O)=O)cc2)C(C(=O)NCCCN2CCC(c3ccccc3)(c3ccccc3)CC2)=C(C)N1 (stereo not drawn) [Example 118, 3-Carboxamido-2-ethyl-1,4-dihydro-4-(4-methanesulfonylphenyl)-6-methyl-3-(N-(3-(4,4-diphenylpiperidin-1-yl)propyl)carboxyamido)-pyridine] | – | 1000 | 1.45 | Ki (α2C receptor; [4]): 2.24 µM |
| CCC1=C(C(N)=O)C(c2ccc([N+](=O)[O-])cc2)C(C(=O)NCCCN2CCN(c3ccccc3OC)CC2)=C(CC)N1 (stereo not drawn) [Example 125, 5-Carboxamido-2,6-diethyl-1,4-dihydro-3-(N-{3-[4-(2-methoxyphenyl)piperazin-1-yl]propyl})carboxamido-4-(4-nitrophenyl)pyridine] | 0.0229 | 38 | – | Ki (α2B receptor; [5]): 0.186 µM |
| CC(C)C1=C(C(N)=O)C(c2ccc([N+](=O)[O-])cc2)C(C(=O)NCCCN2CCC(c3ccccc3)(c3ccccc3)CC2)=C(C(C)C)N1 (stereo not drawn) [Example 127] | – | 1000 | – | pKi alpha-2 2c (α2C receptor; [3H]rauwolscine, human α2C receptor, LM(tk−) cells): 6.37; pKi alpha-2 2b (α2B receptor; [3H]rauwolscine, human α2B receptor, LM(tk−) cells): 6.42 |
| CC1=C(C(=O)NCCCN2CCC(c3ccccc3)(c3ccccc3)CC2)C(c2ccc([N+](=O)[O-])cc2)C(C(=O)NC(C)C)=C(C)N1 (stereo not drawn) [Example 156, 1,4-Dihydro-3-(N-isopropyl) carboxamido-2,6-dimethyl-4-(4-nitrophenyl)-5-{N-[3-(^414-diphenylpiperidin-1-yl)propyl]}carboxamidopyridine] | 0.219 | 75.9 | 0.562 | – |
| CC1=C(C(=O)NCCCN2CCC(c3ccccc3)(c3ccccc3)CC2)C(c2ccc([N+](=O)[O-])cc2)C(C(=O)OCCC#N)=C(C)N1 (stereo not drawn) [Example 160] | 0.155 | 15.5 | – | Ki (α2B receptor; [5]): 0.148 µM |
| CNC(=O)C1=C(C)NC(C)=C(C(=O)NCCCN2CCC(O)(c3ccccc3)CC2)C1c1ccc([N+](=O)[O-])cc1 (stereo not drawn) [Example 162, 1,4-Dihydro-3-{N-[3-(4-hydroxy-4-phenylpiperidin-1-yl)propyl]}carboxamido-2,6-dimethyl-5-(N-methyl)carboxamido-4-(4-nitrophenyl)pyridine] | 0.55 | 50.1 | 0.347 | – |
